# Data reported in publication PMC11459967 (Antimicrobial Agents and Chemotherapy, 2024).
# Read-outs that look alike come from different tables or passages of the source.
# Experiments:
# [1] = system: SARS-CoV-2 Omicron (B.1.1.529); assay: microbe, parasite or virus in culture; type: cell-based; conditions: Severe acute respiratory syndrome coronavirus 2, Vero C1008, 48 h; read-out: EC50 viral high-content imaging assay
# [2] = target: T1, thrombin (Homo sapiens, UniProt P00734); assay: Thrombin enzymatic assay; type: biochemical
# T1 construct: purchased RD Systems 1473-SE-010
# Protocol: Assays contained 25 pM thrombin (RD Systems: 1473-SE-010), 25 µM BOC-PVR-AMC, and 100 nL of test compound in 100% DMSO, in a total of 10 µL of 50 mM Tris, pH 7.0, 100 mM NaCl, 10 mM CaCl2, and 0.005% Tween20 in black low volume 384-well plates. The production of AMC was followed at 5-min intervals at 355 nm excitation and 460 nm emission in an Envision microplate reader (PerkinElmer). Reaction rates were determined by linear regression of the resulting progress curves. […] Nonlinear regression fits of the data to a one-site dose-response curve were performed using XLFit (IDBS).
# [3] = system: SARS-CoV-2 WT (WA1/2020); assay: Live virus high-content imaging assay (nucleocapsid expression), WT; type: cell-based; conditions: Severe acute respiratory syndrome coronavirus 2, Vero C1008, Vero-E6 cells, 48 h infection, read-out: EC50 viral high-content imaging assay
# [4] = system: SARS-CoV-2 Delta (B.1.617); assay: microbe, parasite or virus in culture; type: cell-based; conditions: Severe acute respiratory syndrome coronavirus 2, Vero C1008, 48 h; read-out: EC50 viral high-content imaging assay
# [5] = system: SARS-CoV-2 (B.1.1.529/Omicron); conditions: for mean reduction in SARS-CoV-2 genomic RNA (E gene) in lung tissue: 1 at 100 mg/kg, PF-332 at 50 mg/kg i.p. b.i.d.
# [6] = Hamster pharmacokinetics (plasma and lung); type: in vivo
# Protocol: Fig 10 […] pharmacokinetics of 1. Mean plasma and lung concentration-time profiles of compound 1 after single i.p. dose at 10 mg/kg in male hamster (N = 3/time point). In-life parameters of compound 1 are provided for plasma and lung.
# To monitor pharmacokinetics of compound 1 following single intraperitoneal administration to male hamsters, compound 1 was prepared prior to use in 10% DMSO, 10% Solutol HS 15, plus 80% PBS in a concentration of 2 mg/mL by weighing 19.65 mg of compound 1 into a new vial and then adding 0.982 mL DMSO into the vial containing the compound and vortexing the vial for 2 min. In addition, 0.982 mL Solutol HS 15 was then added into the vial containing the compound, and the vial was vortexed for 2 min. Also, 7.860 mL of PBS was then added into the vial which was further vortexed for 3 min and sonicated for 0.5 min. Male hamsters weighing 89 g–104 g (N = 18) were purchased from Beijing Weitong Lihua Laboratory Animal Co. Ltd. Hamsters were fasted overnight and fed at 4 h post-dosing. The compound was administered 10 mg/kg (5 mL/kg) via intraperitoneal injection. Sampling was done at 0.25, 0.5, 1, 2, 4, and 6 h post dose, six time points, by terminal bleeding for plasma and lung at each time point. Approximately 150 µL blood/time point was collected into the K2EDTA tube via the jugular vein. The blood sample was put on wet ice and centrifuged to obtain a plasma sample (2,000 g, 5 min under 4°C) within 15 min. Lung collection was performed by making a mid-line incision in the animals’ chest and abdomen, the skin was retracted, and the lung was exposed after cutting off the ribs and removing other organs using surgical scissors and forceps. The lung was removed using surgical scissors and then rinsed with cold saline. The lung was placed in screw-top tubes and then stored under −70°C until analysis. Lung tissue was homogenized for 2 min with two volumes (vol/wt) of PBS (pH 7.4) immediately before analysis by LC-MS/MS.
# [7] = Mouse liver microsome stability assay; conditions: microsomes
# Protocol: Test compounds (0.5 µM) were incubated with liver microsomes ([…]) and an NADPH-regenerating system (cofactor solution), and samples were taken at various time points, quenched with an acetonitrile solution containing an internal standard, and then analyzed by liquid chromatography with tandem mass spectrometry (LC-MS/MS). […] For the 0-min time point, 135 µL of acetonitrile (ACN) containing internal standard (IS) was added to the wells of a 0-min plate, followed by the addition of 15 µL of NADPH stock solution (6 mM). All other plates were pre-incubated at 37°C for 5 min. Fifteen microliters of NADPH stock solution (6 mM) was then added to the plates to start the reaction and timing. […] Fifty microliters of supernatant was then transferred from each well into a 96-well sample plate containing 50 µL of ultra-pure water for LC/MS analysis.
# [8] = target: T2, cathepsin L (Homo sapiens, UniProt P07711); assay: Cathepsin L enzymatic assay; type: biochemical
# T2 construct: purchased RD Systems 952-CY-010
# T2 sequence (P07711 114-333): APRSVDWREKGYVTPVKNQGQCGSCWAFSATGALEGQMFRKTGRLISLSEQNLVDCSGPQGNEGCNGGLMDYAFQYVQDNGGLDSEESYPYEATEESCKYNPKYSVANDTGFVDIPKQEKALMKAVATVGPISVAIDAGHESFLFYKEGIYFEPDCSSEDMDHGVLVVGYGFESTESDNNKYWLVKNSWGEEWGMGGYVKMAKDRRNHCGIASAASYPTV
# Protocol: The assays contained 25 pM cathepsin L (RD Systems: 952-CY-010), 5 µM LR-AMC, 100 nL of test compound in 100% DMSO, in a total of 10 µL of 20 mM potassium phosphate, pH 6.0, 150 mM NaCl, 0.005% Tween20, and 5 mM DTT in black low volume 384-well plates. The production of AMC was followed at 5-min intervals with excitation at 355 nm and emission at 460 nm using an Envision microplate reader (PerkinElmer). Reaction rates were determined by linear regression of the resulting progress curves. […] Nonlinear regression fits of the data to a one-site dose-response curve were performed using XLFit (IDBS).
# [9] = target: T3, cathepsin B (Homo sapiens, UniProt P07858); assay: Cathepsin B enzymatic assay; type: biochemical
# T3 construct: purchased RD Systems 953-CY-010
# Protocol: Assays contained 0.6 nM cathepsin B (RD Systems: 953-CY-010), 25 µM Z-LR-AMC, and 100 nL of test compound in 100% DMSO in a total of 10 µL of 50 mM MES, pH 5.0, 150 mM NaCl, 0.05% CHAPS, and 5 mM DTT in black low volume 384-well plates. The production of AMC was followed at 5-min intervals at 355 nm excitation and 460 nm emission in an Envision microplate reader (PerkinElmer). Reaction rates were determined by linear regression of the resulting progress curves. Rates were normalized to percent inhibition, where 0% is equal to the rate in the presence enzyme, and 100% is equal to the rate in the absence of enzyme. Nonlinear regression fits of the data to a one-site dose-response curve were performed using XLFit (IDBS).
# [10] = system: SARS-CoV-2 Beta (B.1.351); assay: microbe, parasite or virus in culture; type: cell-based; conditions: Severe acute respiratory syndrome coronavirus 2, Vero C1008, 48 h; read-out: EC50 viral high-content imaging assay
# [11] = target: SARS-CoV-2 Mpro (Severe acute respiratory syndrome coronavirus 2, UniProt P0DTC1); assay: biochemical; type: biochemical; conditions: Mpro enzymatic assay
# [12] = enzyme assay, at least 10-point dose-response curves in duplicate, read-out: Thrombin IC50
# [13] = single IP dose at 10 mg/kg in male hamster
# [14] = single i.p. dose at 10 mg/kg in male hamster
# [15] = enzyme assay, at least 10-point dose-response curves in duplicate, read-out: CatL IC50
# [16] = enzyme assay, at least 10-point dose-response curves in duplicate, read-out: CatB IC50
compound,measurement,setting,value
O=C(CN1C(=O)C(NC(=O)OCc2ccccc2)COc2ccccc21)NC(CC1CCNC1=O)C(=O)COC(=O)c1c(Cl)cccc1Cl (centres unmarked) [Compound 1],EC50,[1],900 ± 900 nM
same,IC50,[2]; [12],> 32000 nM
same,EC50,[3],2100 ± 2100 nM
same,EC50,[4],3000 ± 2400 nM
same,mean reduction in SARS-CoV-2 sub-genomic RNA (N gene) in lung tissue,"[5]; […], 100 mg/kg i.p. b.i.d., versus vehicle, P = 0.002",2.0 log
same,mean reduction in SARS-CoV-2 genomic RNA (E gene) in lung tissue,"[5]; […], versus vehicle",0.5 log
same,lung histopathology scores (H&E) compared to vehicle-treated SGH,"[5]; hamster, in vivo",did not observe any significant difference
same,reduction in SARS-CoV-2 viral titer from lung tissue,"[5]; hamster, in vivo",32.6%
same,toxicities or behavioral abnormalities during dosing,"[5]; hamster, in vivo",no obvious toxicities or behavioral abnormalities
same,Kp,"[6]; lung / plasma, single IP dose at 10 mg/kg in male hamster, read-out: AUClung/AUCplasma",3.2
same,half-life,"[6]; lung, single IP dose at 10 mg/kg in male hamster, read-out: lung T1/2 (converted)",48.6 min
same,Tmax,"[6]; lung, single IP dose at 10 mg/kg in male hamster, read-out: lung Tmax",30 min
same,Cmax,"[6]; plasma, single IP dose at 10 mg/kg in male hamster",990 ng/mL
same,AUC(0-inf),"[6]; plasma, single IP dose at 10 mg/kg in male hamster, read-out: plasma AUCINF",1830 ng·h/mL
same,AUC(0-t),"[6]; plasma, single IP dose at 10 mg/kg in male hamster, read-out: plasma AUClast",1820 ng·h/mL
same,half-life,"[6]; plasma, single IP dose at 10 mg/kg in male hamster, read-out: plasma T1/2 (converted)",44 min
same,Tmax,"[6]; plasma, single IP dose at 10 mg/kg in male hamster, read-out: plasma Tmax",15 min
same,lung AUCINF,[6]; [13],5854 ng·h/g
same,lung AUClast,[6]; [13],5818 ng·h/g
same,lung Cmax,[6]; [13],3623 ng/g
same,clinical symptoms during the in-life phase,[6]; [14],no abnormal clinical symptoms observed
same,concentration achieved in the lung,[6]; [14],about 8 µM
same,half-life at 0.5 µM,[7],< 2 min
same,IC50,"[8]; as stated in text: no substantial inhibition, read-out: cathepsin L IC50",> 15000 nM
same,IC50,[8]; [15],> 32000 nM
same,IC50,"[9]; as stated in text: no substantial inhibition, read-out: cathepsin B IC50",> 15000 nM
same,IC50,[9]; [16],18000 nM
same,EC50,[10],3100 nM
O=C(CN1C(=O)[C@@H](NC(=O)c2ccccc2)COc2ccccc21)N[C@@H](C[C@@H]1CCNC1=O)C(=O)COC(=O)c1c(Cl)cccc1Cl [Compound 19],half-life at 0.5 µM,[7],< 2 min
same,IC50,[9]; [16],13000 nM
"CC(C)(C)[C@H](NC(=O)C(F)(F)F)C(=O)N1C[C@H]2[C@@H]([C@H]1C(=O)N[C@H](C#N)C[C@@H]1CCNC1=O)C2(C)C [nirmatrelvir, reference compound]",reduction in N sub-genomic RNA in lung tissue,"[5]; […], 50 mg/kg i.p. b.i.d., versus vehicle",5.2 fold
same,mean reduction in SARS-CoV-2 genomic RNA (E gene) in lung tissue,"[5]; […], versus vehicle",3.0 log
O=C(CN1C(=O)[C@@H](NC(=O)OCc2ccccc2)COc2ccccc21)N[C@@H](C[C@@H]1CCNC1=O)C(=O)COc1cc(C(F)(F)F)nn1-c1ccc(F)cc1 [Compound 21],IC50,[2]; [12],> 32000 nM
same,IC50,[8]; [15],> 32000 nM
same,IC50,[9]; [16],27000 nM
"CC(C)C[C@H](NC(=O)OCc1ccccc1)C(=O)N[C@@H](C[C@@H]1CCNC1=O)C(O)S(=O)(=O)O (some centres unmarked) [GC-376, reference compound]",EC50,[1],400 ± 500 nM
same,IC50,[2],> 10000 nM
same,EC50,[3],300 ± 500 nM
same,EC50,[4],600 nM
same,IC50,[8],0.05 nM
same,IC50,[9],37 ± 15 nM
O=C(CN1C(=O)[C@@H](NC(=O)c2ccc3ccccc3n2)COc2ccccc21)N[C@@H](C[C@@H]1CCNC1=O)C(=O)COC(=O)c1c(Cl)cccc1Cl [Compound 20],IC50,[2]; [12],> 32000 nM
same,half-life at 0.5 µM,[7],< 2 min
same,IC50,[8]; [15],23100 nM
same,IC50,[9]; [16],1800 nM
"COc1cccc2[nH]c(C(=O)N[C@@H](CC(C)C)C(=O)N[C@@H](C[C@@H]3CCNC3=O)C(=O)COC(=O)c3c(Cl)cccc3Cl)cc12 [Compound 18, reference compound]",half-life at 0.5 µM,[7],< 2 min
same,IC50,[8]; [15],1.8 nM
same,time to achieve maximum inhibition,[11],≤ 10 min
same,IC50,[9]; [16],24 ± 7.5 nM
N[C@H]1COc2ccccc2N(CC(=O)N[C@@H](C[C@@H]2CCNC2=O)C(=O)COC(=O)c2c(Cl)cccc2Cl)C1=O [Compound 9],half-life at 0.5 µM,[7]; mouse,< 2 min
